Data as given in USRE48267E1, “Variants of C-type natriuretic peptide” (priority 2009, dated 2020).
Read-outs that look alike come from different tables or passages of the source. Where a SMILES comes first, the peptide text is derived from it. Bridges are numbered along the chain shown (N, C = ends). The star is where a group is joined. Heptanoyl = CCCCCCC(=O)*

Experiments:
Recombinant human NEP = Recombinant human NEP (Homo sapiens, UniProt P08473); test: in vitro NEP cleavage assay (disappearance of non-cleaved CNP variant); conditions: for NEP Cleavage (t1/2, min): 100 uM peptide, 1 ug/mL NEP, 0.1 M Tris pH 7, 37° C., adjusted t1/2, CNP22 normalized to 80 min
Sequence of Recombinant human NEP (P08473 whole entry): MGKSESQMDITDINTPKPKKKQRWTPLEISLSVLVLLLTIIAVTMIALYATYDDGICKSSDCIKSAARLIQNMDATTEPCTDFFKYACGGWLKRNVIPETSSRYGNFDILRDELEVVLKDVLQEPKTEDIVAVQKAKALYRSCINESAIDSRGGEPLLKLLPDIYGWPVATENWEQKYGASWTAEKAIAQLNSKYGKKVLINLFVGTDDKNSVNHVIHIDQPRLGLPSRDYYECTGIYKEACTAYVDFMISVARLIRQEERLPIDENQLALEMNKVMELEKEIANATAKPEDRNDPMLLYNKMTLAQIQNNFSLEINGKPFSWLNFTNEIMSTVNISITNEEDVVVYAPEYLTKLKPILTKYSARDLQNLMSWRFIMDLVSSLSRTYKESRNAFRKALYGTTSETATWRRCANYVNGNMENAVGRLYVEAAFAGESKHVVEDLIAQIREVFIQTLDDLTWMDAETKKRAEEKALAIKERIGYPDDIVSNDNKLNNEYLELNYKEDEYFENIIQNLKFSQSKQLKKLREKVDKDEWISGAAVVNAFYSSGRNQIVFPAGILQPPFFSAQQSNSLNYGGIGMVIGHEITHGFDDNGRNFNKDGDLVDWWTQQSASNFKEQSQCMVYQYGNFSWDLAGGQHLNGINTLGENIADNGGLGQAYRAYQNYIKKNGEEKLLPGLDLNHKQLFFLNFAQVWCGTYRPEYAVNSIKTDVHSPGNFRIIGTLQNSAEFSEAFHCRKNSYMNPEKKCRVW
In short: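 Recombinant human NEP (1 ug/mL final) incubated with 100 uM CNP variant in 0.1 M Tris, pH 7, at 37° C for various times, then quenched with EDTA (10 mM final) and heat. Samples reduced and analysed by HPLC and mass spectrometry. Half-life derived from loss of intact variant over time.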

NPR-B = target: T1, NPR-B (Mus musculus, UniProt Q6VVW5); test: stimulation of cGMP production in NIH3T3 cells; format: cell-based, murine; conditions: for cGMP Response rel. to 1 uM CNP22, 10 nM: NIH3T3 cells exposed to 10 nM peptide; for cGMP Response rel. to 1 uM CNP22, 10 nM / cGMP Response rel. to 1 uM CNP22, 1 uM: normalized to cell number and cGMP production in the presence of 1 uM wtCNP22; for cGMP Response rel. to 1 uM CNP22, 1 uM: NIH3T3 cells exposed to 1 uM peptide
T1 construct: Murine NIH3T3 cells express endogenously the CNP signaling receptor, NPR-B; endogenous in cells; host or cells: NIH3T3
T1 sequence (Q6VVW5 17-1047): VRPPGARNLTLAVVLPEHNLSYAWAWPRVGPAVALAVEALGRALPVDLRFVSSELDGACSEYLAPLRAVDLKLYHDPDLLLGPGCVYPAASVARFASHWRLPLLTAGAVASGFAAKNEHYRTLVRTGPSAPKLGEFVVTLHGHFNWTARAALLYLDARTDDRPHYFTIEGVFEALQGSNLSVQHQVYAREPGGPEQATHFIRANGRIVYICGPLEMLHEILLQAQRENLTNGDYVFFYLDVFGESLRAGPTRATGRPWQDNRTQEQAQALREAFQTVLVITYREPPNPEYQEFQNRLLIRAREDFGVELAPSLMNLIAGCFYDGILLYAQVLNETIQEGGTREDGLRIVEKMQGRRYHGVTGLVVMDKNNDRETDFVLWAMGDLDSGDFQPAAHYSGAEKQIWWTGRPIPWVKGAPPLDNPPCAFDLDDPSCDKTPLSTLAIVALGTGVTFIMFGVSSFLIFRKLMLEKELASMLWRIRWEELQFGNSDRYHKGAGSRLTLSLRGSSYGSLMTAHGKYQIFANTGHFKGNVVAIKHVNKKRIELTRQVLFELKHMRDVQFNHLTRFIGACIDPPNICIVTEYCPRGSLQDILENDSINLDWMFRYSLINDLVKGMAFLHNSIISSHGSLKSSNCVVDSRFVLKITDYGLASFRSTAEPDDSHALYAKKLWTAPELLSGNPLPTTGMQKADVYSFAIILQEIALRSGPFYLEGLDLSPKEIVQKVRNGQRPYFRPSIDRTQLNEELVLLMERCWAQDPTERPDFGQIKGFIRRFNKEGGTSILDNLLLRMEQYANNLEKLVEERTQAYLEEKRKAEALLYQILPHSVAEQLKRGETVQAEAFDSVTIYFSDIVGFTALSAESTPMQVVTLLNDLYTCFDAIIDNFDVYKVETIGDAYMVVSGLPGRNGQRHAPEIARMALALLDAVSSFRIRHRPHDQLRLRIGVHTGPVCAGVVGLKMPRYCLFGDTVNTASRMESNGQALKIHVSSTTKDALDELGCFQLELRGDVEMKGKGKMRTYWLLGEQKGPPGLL
Experimental: To determine the functional activity of CNP variants, the production of cGMP was measured in NIH3T3 cells exposed to the CNP variants. Murine NIH3T3 cells express endogenously the CNP signaling receptor, NPR-B, which shares 98% protein sequence identity with human NPR-B. NIH3T3 cells were cultured in high glucose Dulbecco's Modified Eagle Medium supplemented with 10% fetal calf serum and antibiotics at 37° C. with 5% CO2). Twenty four to 48 hours prior to signaling, cells were passaged to 12-well plates with a density of 2-5×10^5 cells per well at the time of the assay. CNP variants were resuspended in 1 mM HCl to a stock concentration of 1 mg/mL (455 uM for wtCNP22) and subsequently diluted to a 30 uM working stock solution with phosphate-buffered saline (PBS). Ten-fold serial dilutions were prepared in phosphate-buffered saline. Culture medium was removed from the cells and replaced with 0.4 mL PBS/Dulbecco's modified Eagle medium (50/50, v/v) containing 0.75 mM isobutylmethylxanine. Plates were incubated at 37° C., 5% CO2 for 15 minutes before addition of 0.2 mL CNP variant in PBS and continued incubation at 37° C. for 15 minutes. Reactions were stopped by the addition of 0.2 mL lysis buffer supplied with the CatchPoint cGMP assay kit (Molecular Devices), and cGMP production was determined with the CatchPoint cGMP Assay (Molecular Devices). All stimulation experiments were performed in duplicate.
Tables 1-4 summarize the ability of CNP variants having backbone or side chain modifications, amino acid substitutions, N-terminal amino acid extensions, and/or N-terminal PEGylation, respectively, to stimulate cGMP production in NIH3T3 cells. In all four tables, the values for cGMP production in NIH3T3 cells exposed to 10 nM or 1 uM CNP variant are normalized to cell number and cGMP production in the presence of 1 uM wtCNP22.

SMILES	resistance to NEP cleavage (in words) (Recombinant human NEP)	cGMP Response rel. to 1 uM CNP22, 10 nM (NPR-B)	cGMP Response rel. to 1 uM CNP22, 1 uM (NPR-B)	NEP Cleavage (t1/2, min) (Recombinant human NEP)	NPR-B stimulation activity / cGMP production compared with wtCNP22 (in words) (NPR-B; NIH3T3 cells)	resistance to NEP cleavage (in words) (Recombinant human NEP; in vitro NEP assay, assay period 160 minutes)	resistance to cleavage at the Cys6-Phe7 bond relative to wtCNP22 (Recombinant human NEP)	half-life compared to those for Analogs A, B, F and H (Recombinant human NEP; human)	half-life in comparison to wtCNP22 (Recombinant human NEP; human)
CC[C@H](C)[C@@H]1NC(=O)[C@H](CCCNC(=N)N)NC(=O)[C@H](CC(=O)O)NC(=O)[C@H](CC(C)C)NC(=O)[C@H](CCCCN)NC(=O)[C@H](CC(C)C)NC(=O)CNC(=O)[C@H](Cc2ccccc2)NC(=O)[C@@H](NC(=O)CNC(=O)[C@H](CCCNC(=N)N)NC(=O)[C@H](CO)NC(=O)[C@H](CC(C)C)NC(=O)CN)CSSC[C@@H](C(=O)O)NC(=O)CNC(=O)[C@H](CC(C)C)NC(=O)CNC(=O)[C@H](CO)NC(=O)[C@H](CCSC)NC(=O)[C@H](CO)NC(=O)[C@H](CC(N)=O)NC1=O [Analog BJ, CNP22, K4R, G15N] (H-GLSRGCFGLKLDRINSMSGLGC-OH; disulfide 6-22; N-terminus and C-terminus assumed)	greatest resistance to NEP cleavage	4	41	–	–	–	–	–	–
CCCCCCC(=O)N[C@@H](CCC(=O)O)C(=O)N[C@@H](CC(C)C)C(=O)N[C@@H](CO)C(=O)N[C@@H](CCCCN)C(=O)NCC(=O)N[C@H]1CSSC[C@@H](C(=O)O)NC(=O)CNC(=O)[C@H](CC(C)C)NC(=O)CNC(=O)[C@H](CO)NC(=O)[C@H](CCSC)NC(=O)[C@H](CO)NC(=O)CNC(=O)[C@H]([C@@H](C)CC)NC(=O)[C@H](CCCNC(=N)N)NC(=O)[C@H](CC(=O)O)NC(=O)[C@H](CC(C)C)NC(=O)[C@H](CCCCN)NC(=O)[C@H](CC(C)C)NC(=O)CNC(=O)[C@H](Cc2ccccc2)NC1=O [Analog BB, Heptanoic acid (N-term.)-CNP22, G1E] (Heptanoyl-ELSKGCFGLKLDRIGSMSGLGC-OH; disulfide 6-22)	–	32 ± 4	84 ± 19	45 to 65 min	comparable NPR-B stimulation activity as wtCNP22	–	–	–	–
CC[C@@H](C)[C@H]1NC(=O)[C@@H](CCCNC(=N)N)NC(=O)[C@@H](CC(=O)O)NC(=O)[C@@H](CC(C)C)NC(=O)[C@@H](CCCCN)NC(=O)[C@@H](CC(C)C)NC(=O)CNC(=O)[C@@H](Cc2ccccc2)NC(=O)[C@H](NC(=O)CNC(=O)[C@@H](CCCCN)NC(=O)[C@@H](CO)NC(=O)[C@@H](CC(C)C)NC(=O)CN)CSSC[C@H](C(=O)O)NC(=O)CNC(=O)[C@@H](CC(C)C)NC(=O)CNC(=O)[C@@H](CO)NC(=O)[C@@H](CCSC)NC(=O)[C@@H](CO)NC(=O)CNC1=O [Analog N, D-CNP22 (all D-amino acids)]	–	2	1	>>160 min	–	greatest resistance to NEP cleavage	–	–	–
CC[C@H](C)[C@@H]1NC(=O)[C@H](CCCNC(=N)N)NC(=O)[C@H](CC(=O)O)NC(=O)[C@H](CC(C)C)NC(=O)[C@H](CCCCN)NC(=O)[C@H](CC(C)C)NC(=O)CNC(=O)[C@H](Cc2cccc(Cl)c2)NC(=O)[C@@H](NC(=O)CNC(=O)[C@H](CCCCN)NC(=O)[C@H](CO)NC(=O)[C@H](CC(C)C)NC(=O)CN)CSSC[C@@H](C(=O)O)NC(=O)CNC(=O)[C@H](CC(C)C)NC(=O)CNC(=O)[C@H](CO)NC(=O)[C@H](CCSC)NC(=O)[C@H](CO)NC(=O)CNC1=O [Analog G]	–	17	93	135 min	–	–	resistance or improved resistance	1.5-2.5 fold	about 1.5 times
